The values that follow come from patent publication US20230118795A1, “ARYL OR HETEROARYL PYRIDONE OR PYRIMIDINE DERIVATIVE, PREPARATION METHOD AND USE THEREOF” (SUZHOU ZELGEN BIOPHARMACEUTICALS CO., LTD., priority 2020, published 2023).

SMILES strings stand for the structures.

One assay relates to NCI-H358 (KRAS^G12C mutation) cell. Description: Cell assay of antiproliferative activity against NCI-H358 cell (Celltiter-Glo, 5 days). The class given is cell-based. The conditions noted are these: 5 days incubation. The protocol:
Cell Assay of Antiproliferative Activity of Compounds Against NCI-H358 (KRAS^G12C Mutation) Cell.
40 μL phosphate buffer was added to the outer wells of the 384 microplate, and 40 μL cell suspension to be tested was added to the other wells. Then the microplate was incubated in a carbon dioxide incubator overnight.
The compounds to be tested were gradiently diluted, each compound was performed 10 concentration gradients (diluted from 50 μM to 0.003 μM) and added 100 nL to the corresponding wells in the microplate. After addition, 40 μl of phosphate buffer was added to each well in rows A and P and columns 1 and 24, and then the microplate was incubated in a carbon dioxide incubator for 5 days.
20 μL of Promega Celltiter-Glo reagent was added to each well of the microplate, and then the luminescence signal was stabilized by oscillating at room temperature for 10 min. Then PekinElmer Envision multi-label analyzer was used to read.
Finally, GraphPad Prism software was used to calculate the IC50 value of the compound and the fitting curve was drawn.
Anti-proliferative activity of the compounds of the present invention against NCI-H358 (KRAS^G12C mutation) cell was shown in Table 1.
On the technique in general: ATP-based viability assays read luminescence as a measure of living cells.
`C=CC(=O)N1CCN(c2nc(=O)n(-c3c(S(C)(=O)=O)ccnc3C(C)C)c3nc(-c4c(O)cccc4F)c(F)cc23)[C@@H](C)C1` [Example 18, 4-((S)-4-acryloyl-2-methylpiperazin-1-yl)-6-fluoro-7-(2-fluoro-6-hydroxyphenyl)-1-(2-isopropyl-4-(methylsulfonyl)pyridin-3-yl)pyridino[2,3-d]pyrimidin-2 (1H)-one] gave an IC50 of 30 nM. This lies in the double-digit nanomolar range.

Turning to `C=CC(=O)N1CCN(c2nc(=O)n(-c3c(C(C)C)ccnc3S(C)(=O)=O)c3nc(-c4c(F)cccc4OC(C)=O)c(F)cc23)[C@@H](C)C1` [Example 24], the IC50 stood at 28 nM.

Consider `C=CC(=O)N1CCN(c2nc(=O)n(-c3c(C4CCC4)cccc3S(C)(=O)=O)c3nc(-c4c(O)cccc4F)c(F)cc23)[C@@H](C)C1` [Example 25, 4-((S)-4-acryloyl-2-methylpiperazin-1-yl)-1-(2-cyclobutyl-6-(methylsulfonyl)phenyl)-6-fluoro-7-(2-fluoro-6-hydroxyphenyl) pyridino[2,3-d]pyrimidin-2(1H)-one], for which inhibition was half-maximal at 9 nM (IC50).

In turn, `C=CC(=O)N1CCN(c2nc(=O)n(-c3c(C(C)C)cccc3S(C)(=O)=O)c3nc(-c4ccccc4Cl)c(F)cc23)[C@@H](C)C1` [Example 30, (S)-4-(4-acryloyl-2-methylpiperazin-1-yl)-7-(2-chlorophenyl)-6-fluoro-1-(2-isopropyl-6-(methylsulfonyl)phenyl) pyridino[2,3-d]pyrimidin-2(1H)-one] gave an IC50 of 18 nM.

The molecule `C=CC(=O)N1CCN(c2nc(=O)n(-c3c(C(C)C)cccc3S(C)(=O)=O)c3nc(-c4c(F)cccc4OC(C)=O)c(F)cc23)[C@@H](C)C1` [Example 31, 2-(4-((S))-4-acryloyl-2-methylpiperazin-1-yl)-6-fluoro-1-(2-isopropyl-6-(methylsulfonyl)phenyl)-2-oxo-1,2-dihydropyridino[2,3-d]pyrimidin-7-yl)-3-fluorophenyl acetate] came in with an IC50 of 8 nM.

As for `C=CC(=O)N1CCN(c2nc(=O)n(-c3cccnc3S(C)(=O)=O)c3nc(-c4c(O)cccc4F)c(F)cc23)[C@@H](C)C1` [Example 54, 4-((S)-4-acryloyl-2-methylpiperazin-1-yl)-6-fluoro-7-(2-fluoro-6-hydroxyphenyl)-1-(2-(methylsulfonyl)pyridin-3-yl) pyridino [2,3-d] pyrimidin-2(1H)-one], half-maximal inhibition (IC50) was put at 2500 nM.

The molecule `C=CC(=O)N1CCN(c2nc(=O)n(-c3ccccc3S(C)(=O)=O)c3nc(-c4c(O)cccc4F)c(F)cc23)CC1CC#N` (stereo not shown) [Example 56, 2-(1-acryloyl-4-(6-fluoro-7-(2-fluoro-6-hydroxyphenyl)-1-(2-(methylsulfonyl)phenyl)-2-oxo-1,2-dihydropyridino [2,3-d]pyrimidin-4-yl)piperazin-2-yl) acetonitrile] came in with an IC50 of 8000 nM.

In turn, `C=CC(=O)N1CCN(c2nc(=O)n(-c3c(C)cccc3S(C)(=O)=O)c3nc(-c4c(O)cccc4F)c(F)cc23)CC1CC#N` (stereo not shown) [Example 57, 2-(1-acryloyl-4-(6-fluoro-7-(2-fluoro-6-hydroxyphenyl)-1-(2-methyl-6-(methylsulfonyl)phenyl)-2-oxo-1,2-dihydropyridino [2,3-d]pyrimidin-4-yl)piperazin-2-yl) acetonitrile] had an IC50 of 10000 nM.

The assay is the same for the next values; noted with them: Homo sapiens, NCI-H358, 120 h, 5 days incubation.
The molecule `C=CC(=O)N1CCN(c2nc(=O)n(-c3c(C)cccc3N(C)S(C)(=O)=O)c3nc(-c4c(O)cccc4F)c(F)cc23)[C@@H](C)C1` [Example 11] came in with an IC50 of 180 nM. In other words, the sub-micromolar range.

As for `C=CC(=O)N1C[C@H](C)N(c2nc(=O)n(-c3c(CC)cccc3S(C)(=O)=O)c3nc(-c4c(O)cccc4F)c(F)cc23)C[C@H]1C` [Example 12, 4-((2S,5R)-4-acryloyl-2,5-dimethylpiperazin-1-yl)-1-(2-ethyl-6-(methylsulfonyl)phenyl)-6-fluoro-7-(2-fluoro-6-hydroxyphenyl) pyridino [2,3-d] pyrimidin-2 (1H)-one], inhibition was half-maximal at 41 nM (IC50).

The molecule `C=CC(=O)N1CCN(c2nc(=O)n(-c3c(C4CC4)cccc3S(C)(=O)=O)c3nc(-c4ccccc4F)c(F)cc23)[C@@H](C)C1` [Example 13, (S)-4-(4-acryloyl-2-methylpiperazin-1-yl)-1-(2-cyclopropyl-6-(methylsulfonyl)phenyl)-6-fluoro-7-(2-fluorophenyl) pyridin [2,3-d] pyrimidin-2(1H)-one] gave an IC50 of 15 nM.

The molecule `C=CC(=O)N1CCN(c2nc(=O)n(-c3c(C)cccc3S(=O)(=O)N(C)C)c3nc(-c4c(O)cccc4F)c(F)cc23)[C@@H](C)C1` [Example 14] showed a half-maximal inhibitory concentration (IC50) of 360 nM.

Take `C=CC(=O)N1CCN(c2nc(=O)n(-c3c(C4CC4)cccc3S(C)(=O)=O)c3nc(-c4c(F)cccc4F)c(F)cc23)[C@@H](C)C1` [Example 15, (S)-4-(4-acryloyl-2-methylpiperazin-1-yl)-1-(2-cyclopropyl-6-(methylsulfonyl)phenyl)-7-(2,6-difluorophenyl)-6-fluoropyridino [2,3-d] pyrimidin-2(1H)-one]: the IC50 worked out at 58 nM.

`C=CC(=O)N1CCN(c2nc(=O)n(-c3c(C(C)C)ccnc3S(C)(=O)=O)c3nc(-c4c(O)cccc4F)c(F)cc23)[C@@H](C)C1` [Example 16, 4-((S)-4-acryloyl-2-methylpiperazin-1-yl)-6-fluoro-7-(2-fluoro-6-hydroxyphenyl)-1-(4-isopropyl-2-(methylsulfonyl)pyridin-3-yl) pyridino [2,3-d] pyrimidin-2 (1H)-one]: the IC50 worked out at 12 nM.

`C=CC(=O)N1CCN(c2nc(=O)n(-c3c(C4CC4)cccc3S(C)(=O)=O)c3nc(-c4ccccc4Cl)c(F)cc23)[C@@H](C)C1` [Example 17, (S)-4-(4-acryloyl-2-methylpiperazin-1-yl)-7-(2-chlorophenyl)-1-(2-cyclopropyl-6-(methylsulfonyl)phenyl)-6-fluoropyridino [2,3-d] pyrimidin-2(1H)-one] gave an IC50 of 31 nM. Against the preceding molecule, the IC50 is about 2.6-fold higher.

Molecule `C=CC(=O)N1CCN(c2nc(=O)n(-c3c(C(C)C)ccnc3S(C)(=O)=O)c3nc(-c4c(F)cccc4OC)c(F)cc23)[C@@H](C)C1` [Example 19, 4-((S)-4-acryloyl-2-methylpiperazin-1-yl)-6-fluoro-7-(2-fluoro-6-methoxyphenyl)-1-(4-isopropyl-2-(methylsulfonyl)pyridin-3-yl) pyridino[2,3-d]pyrimidin-2(1H)-one] had an IC50 of 48 nM.

The molecule `C=CC(=O)N1CCN(c2nc(=O)n(-c3c(C(C)C)ccnc3S(C)(=O)=O)c3nc(-c4ccccc4Cl)c(F)cc23)[C@@H](C)C1` [Example 20, (S)-4-(4-acryloyl-2-methylpiperazin-1-yl)-7-(2-chlorophenyl)-6-fluoro-1-(4-isopropyl-2-(methylsulfonyl)pyridin-3-yl) pyridino[2,3-d] pyrimidin-2(1H)-one] showed an IC50 of 23 nM.

In turn, `C=C(F)C(=O)N1CCN(c2nc(=O)n(-c3c(C(C)C)cccc3S(C)(=O)=O)c3nc(-c4c(O)cccc4F)c(F)cc23)[C@@H](C)C1` [Example 21] yielded an IC50 of 1200 nM.

Molecule `C=CC(=O)N1CCN(c2nc(=O)n(-c3c(C(C)C)ccnc3S(C)(=O)=O)c3nc(-c4ccc(F)cc4Cl)c(F)cc23)[C@@H](C)C1` [Example 22, (S)-4-(4-acryloyl-2-methylpiperazin-1-yl)-7-(2-chloro-4-fluorophenyl)-6-fluoro-1-(4-isopropyl-2-(methylsulfonyl)pyridin-3-yl) pyridino[2,3-d]pyrimidin-2(1H)-one] returned an IC50 of 39 nM.

Consider `C=C(F)C(=O)N1CCN(c2nc(=O)n(-c3c(C(C)C)cccc3S(C)(=O)=O)c3nc(-c4ccccc4Cl)c(F)cc23)[C@@H](C)C1` [Example 23, (S)-7-(2-chlorophenyl)-6-fluoro-4-(4-(2-fluoroacryloyl)-2-methylpiperazin-1-yl)-1-(2-isopropyl-6-(methylsulfonyl)phenyl)pyridino[2,3-d]pyrimidin-2(1H)-one], for which the IC50 worked out at 1100 nM.

On to `C=CC(=O)N1CCN(c2nc(=O)n(-c3c(C(C)C)ccnc3S(C)(=O)=O)c3nc(-c4cccc(F)c4Cl)c(F)cc23)[C@@H](C)C1` [Example 26, (S)-4-(4-acryloyl-2-methylpiperazin-1-yl)-7-(2-chloro-3-fluorophenyl)-6-fluoro-1-(4-isopropyl-2-(methylsulfonyl)pyridin-3-yl) pyridino[2,3-d] pyrimidin-2(1H)-one], for which the IC50 came out at 18 nM.

Regarding `C=CC(=O)N1CCN(c2nc(=O)n(-c3c(C(C)C)ccnc3S(C)(=O)=O)c3nc(-c4c(O)cccc4Cl)c(F)cc23)[C@@H](C)C1` [Example 27, 4-((S)-4-acryloyl-2-methylpiperazin-1-yl)-7-(2-chloro-6-hydroxyphenyl)-6-fluoro-1-(4-isopropyl-2-(methylsulfonyl)pyridin-3-yl) pyridino[2,3-d] pyrimidin-2(1H)-one], 30 nM corresponded to half-maximal inhibition (IC50).

In turn, `C=CC(=O)N1CCN(c2nc(=O)n(-c3c(C(C)C)ccnc3S(C)(=O)=O)c3nc(-c4c(F)cccc4Cl)c(F)cc23)[C@@H](C)C1` [Example 28, 4-((S)-4-acryloyl-2-methylpiperazin-1-yl)-7-(2-chloro-6-fluorophenyl)-6-fluoro-1-(4-isopropyl-2-(methylsulfonyl)pyridin-3-yl) pyridino[2,3-d] pyrimidin-2(1H)-one] came in with an IC50 of 26 nM.

In the case of `C=CC(=O)N1CCN(c2nc(=O)n(-c3c(C(C)C)cncc3S(C)(=O)=O)c3nc(-c4c(O)cccc4F)c(F)cc23)[C@@H](C)C1` [Example 29], the IC50 came out at 53 nM.

`C=CC(=O)N1CCN(c2nc(=O)n(-c3cnccc3S(C)(=O)=O)c3nc(-c4c(O)cccc4F)c(F)cc23)[C@@H](C)C1` [Example 55] yielded an IC50 of 5300 nM.

The term IC50 denotes the concentration that gives 50% inhibition.
